Data as given in patent US7659404B2, “Broad spectrum 2-(substituted-amino)-benzothiazole sulfonamide HIV protease inhibitors” (Tibotec Pharmaceuticals Ltd., priority 2001, dated 2010).

Tests used:
wild type virus (IIIB) = experiment: HIV-AVE-MT4-MTT cellular assay, wild type virus (IIIB); type: cell-based; settings: MT4 cells, MTT; for HIV-AVE-MT4-MTT-IIIB-2-002 pEC50: wild type virus (IIIB); for EC50: Human immunodeficiency virus 1, IIIB, MT4, wild type virus (IIIB), read-out: HIV-AVE-MT4-MTT-IIIB-2-002 pEC50 (converted)
Protocol: (§1) HIV- or mock-infected MT4 cells were incubated for five days in the presence of various concentrations of the inhibitor. At the end of the incubation period, all HIV-infected cells have been killed by the replicating virus in the control cultures in the absence of any inhibitor. Cell viability is measured by measuring the concentration of MTT, a yellow, water soluble tetrazolium dye that is converted to a purple, water insoluble formazan in the mitochondria of living cells only. Upon solubilization of the resulting formazan crystals with isopropanol, the absorbance of the solution is monitored at 540 nm. The values correlate directly to the number of living cells remaining in the culture at the completion of the five day incubation. The inhibitory activity of the compound was monitored on the virus-infected cells and was expressed as EC50 and EC90. These values represent the amount of the compound required to protect 50% and 90%, respectively, of the cells from the cytopathogenic effect of the virus. The toxicity of the compound was measured on the mock-infected cells and was expressed as CC50, which represents the concentration of compound required to inhibit the growth of the cells by 50%. The selectivity index (SI) (ratio CC50/EC50) is an indication of the selectivity of the anti-HIV activity of the inhibitor.

virus strain S (R13080) = experiment: microbe, parasite or virus in culture; type: cell-based, HIV; settings: Human immunodeficiency virus 1, MT4, read-out: HIV-AVE-MT4-MTT-R13080-2-002 pEC50, virus strain S (R13080), MT4 cells, MTT (converted)
Protocol: as §1, with “At the end of the incubation period, all HIV-infected cells have been killed by the replicating virus in the control cultures in the absence of any inhibitor.” left out
(§2) Because of the increasing emergence of drug resistant HIV strains, the present compounds were tested for their potency against clinically isolated HIV strains harboring several mutations.
(§3) As a measure of the broad spectrum activity of the present compounds, the fold resistance (FR) defined as FR=EC50(mutant strain)/EC50(HIV-1 strain LAI).

virus strain F (R13025) = experiment: microbe, parasite or virus in culture; type: cell-based, HIV; settings: for EC50: Human immunodeficiency virus 1, MT4, read-out: HIV-AVE-MT4-MTT-R13025-2-002 pEC50, virus strain F (R13025), MT4 cells, MTT (converted); for HIV-AVE-MT4-MTT-R13025-2-002 pEC50: virus strain F (R13025), MT4 cells
Protocol: as §1, with “At the end of the incubation period, all HIV-infected cells have been killed by the replicating virus in the control cultures in the absence of any inhibitor.” left out
as §2, §3

Row | EC50 (wild type virus (IIIB)) [nM] | Compound | HIV-AVE-MT4-MTT-IIIB-2-002 pEC50 (wild type virus (IIIB)) | EC50 (virus strain S (R13080)) [nM] | EC50 (virus strain F (R13025)) [nM] | HIV-AVE-MT4-MTT-R13025-2-002 pEC50 (virus strain F (R13025))
1 | – | CC(C)CN(C[C@@H](O)[C@H](Cc1ccccc1)NC(=O)[C@@H](NC(=O)CNCc1cccc(F)c1)C(C)(C)C)S(=O)(=O)c1ccc2nc(NCCN3CCCC3)sc2c1.O=C(O)C(F)(F)F.O=C(O)C(F)(F)F [Compound 85, N′-[(3-fluorophenyl)methyl]glycyl-N-[(1S,2R)-2-hydroxy-3-[(2-methylpropyl)[[2-[2-(pyrrolidin-1-yl)ethylamino]benzothiazol-6-yl]sulfonyl]amino]-1-(phenylmethyl)propyl]-3-methyl-L-Valinamide, bis-trifluoroacetate] | 7.24 | – | – | –
2 | 240 | CC(C)CN(C[C@@H](O)[C@H](Cc1ccccc1)NC(=O)O[C@@H]1COC2OCCNC21)S(=O)(=O)c1ccc2nc(NCCN3CCCC3)sc2c1 (stereo partly drawn) [Compound 101] | – | – | – | –
3 | 66.1 | CC(=O)Nc1nc2ccc(S(=O)(=O)N(CC(C)C)C[C@@H](O)[C@H](Cc3ccccc3)NC(=O)COc3c(C)cc([N+](=O)[O-])cc3C)cc2s1 [Compound 104] | – | – | – | –
4 | – | Cc1cccc(C)c1OCC(=O)N[C@@H](Cc1ccccc1)[C@H](O)CN(CC(C)C)S(=O)(=O)c1ccc2nc(NC(=O)c3ccccn3)sc2c1 [Compound 112] | 8 | 151 | – | 6.91
5 | 302 | CC(C)CN(C[C@@H](O)[C@H](Cc1ccccc1)NC(=O)OC(C)(C)C)S(=O)(=O)c1ccc2nc(NCc3ccccn3)sc2c1 [Compound 118] | – | – | – | –
6 | – | CC(C)CN(C[C@@H](O)[C@H](Cc1ccccc1)NC(=O)OC(C)(C)C)S(=O)(=O)c1ccc2nc(NCc3ccccn3)sc2c1 [Compound 119] | 6.48 | – | – | –
7 | 316 | CC(C)CN(C[C@@H](O)[C@H](Cc1ccccc1)NC(=O)OC(C)(C)C)S(=O)(=O)c1ccc2nc(NCCc3ccccn3)sc2c1 [Compound 120] | – | – | – | –
8 | 1200 | CC(C)CN(C[C@@H](O)[C@H](Cc1ccccc1)NC(=O)OC(C)(C)C)S(=O)(=O)c1ccc2nc(N3CCOCC3)sc2c1 [Compound 122] | – | – | – | –
9 | 1580 | CC(C)CN(C[C@@H](O)[C@H](Cc1ccccc1)NC(=O)OC(C)(C)C)S(=O)(=O)c1ccc2nc(N(C)CCN3CCCC3)sc2c1 [Compound 123] | – | – | – | –
10 | 2000 | CC(C)CN(C[C@@H](O)[C@H](Cc1ccccc1)NC(=O)OC(C)(C)C)S(=O)(=O)c1ccc2nc(N(C)CCCN3CCCC3)sc2c1 [Compound 124] | – | – | – | –
11 | 63.1 | Cc1cccc(C)c1OCC(=O)N[C@@H](Cc1ccccc1)[C@H](O)CN(CC(C)C)S(=O)(=O)c1ccc2nc(NCc3ccccn3)sc2c1 [Compound 129] | – | – | – | –
12 | 58.9 | Cc1cccc(C)c1OCC(=O)N[C@@H](Cc1ccccc1)[C@H](O)CN(CC(C)C)S(=O)(=O)c1ccc2nc(NCc3cccnc3)sc2c1 [Compound 130] | – | – | – | –
13 | 64.6 | Cc1cccc(C)c1OCC(=O)N[C@@H](Cc1ccccc1)[C@H](O)CN(CC(C)C)S(=O)(=O)c1ccc2nc(NCCc3ccccn3)sc2c1 [Compound 132] | – | – | – | –
14 | 61.7 | Cc1cccc(C)c1OCC(=O)N[C@@H](Cc1ccccc1)[C@H](O)CN(CC(C)C)S(=O)(=O)c1ccc2nc(NCC3CCCO3)sc2c1 (stereo partly drawn) [Compound 134] | – | – | – | –
15 | 66.1 | COC(=O)CCNc1nc2ccc(S(=O)(=O)N(CC(C)C)C[C@@H](O)[C@H](Cc3ccccc3)NC(=O)COc3c(C)cccc3C)cc2s1 [Compound 135] | – | – | – | –
16 | 724 | Cc1cccc(C)c1OCC(=O)N[C@@H](Cc1ccccc1)[C@H](O)CN(CC(C)C)S(=O)(=O)c1ccc2nc(N3CCOCC3)sc2c1 [Compound 136] | – | – | – | –
17 | 1700 | Cc1cccc(C)c1OCC(=O)N[C@@H](Cc1ccccc1)[C@H](O)CN(CC(C)C)S(=O)(=O)c1ccc2nc(N(C)CCN3CCOCC3)sc2c1 [Compound 137] | – | – | – | –
18 | 1450 | Cc1cccc(C)c1OCC(=O)N[C@@H](Cc1ccccc1)[C@H](O)CN(CC(C)C)S(=O)(=O)c1ccc2nc(N(C)CCCN3CCCC3)sc2c1 [Compound 138] | – | – | – | –
19 | – | Cc1cccc(C)c1OCC(=O)N[C@@H](Cc1ccccc1)[C@H](O)CN(CC(C)C)S(=O)(=O)c1ccc2nc(NC(=O)c3ccccn3)sc2c1 [Compound 140] | 8.34 | – | – | 8.12
20 | 5620 | CC(C)CN(C[C@@H](O)[C@H](Cc1ccccc1)NC(=O)OC(C)(C)C)S(=O)(=O)c1ccc2nc(N3CCC[C@@H]3C(=O)O)sc2c1 [Compound 142] | – | – | – | –
21 | 339 | Cc1cccc(C)c1OCC(=O)N[C@@H](Cc1ccccc1)[C@@H](CN(CC(C)C)S(=O)(=O)c1ccc2nc(NC(=O)c3ccccc3)sc2c1)OC(=O)c1ccncc1 [Compound 147] | – | – | – | –
22 | 51.3 | CC(C)CN(C[C@@H](O)[C@H](Cc1ccccc1)NC(=O)OCc1cncs1)S(=O)(=O)c1ccc2nc(NCCN(C)C(=O)OC(C)(C)C)sc2c1 [Compound 149] | – | – | – | –

Row | Compound | EC50 (wild type virus (IIIB)) [nM] | HIV-AVE-MT4-MTT-IIIB-2-002 pEC50 (wild type virus (IIIB)) | EC50 (virus strain S (R13080)) [nM] | EC50 (virus strain F (R13025)) [nM] | HIV-AVE-MT4-MTT-R13025-2-002 pEC50 (virus strain F (R13025))
23 | CC(C)CN(C[C@@H](O)[C@H](Cc1ccccc1)NC(=O)O[C@H]1CCOC1)S(=O)(=O)c1ccc2nc(NC(=O)CN3CCCC3)sc2c1 [Compound 100] | 1.32 | – | 70.8 | 43.7 | –
24 | CC(=O)Nc1nc2ccc(S(=O)(=O)N(CC(C)C)C[C@@H](O)[C@H](Cc3ccccc3)NC(=O)COc3ccon3)cc2s1 [Compound 102] | 12 | – | 955 | 132 | –
25 | CC(C)CN(C[C@@H](O)[C@H](Cc1ccccc1)NC(=O)O[C@H]1CO[C@H]2OCC[C@H]21)S(=O)(=O)c1ccc2nc(N(C)CCCN(C)C)sc2c1 [Compound 103] | 20 | – | 525 | 174 | –
26 | CC(=O)Nc1nc2ccc(S(=O)(=O)N(CC(C)C)C[C@@H](O)[C@H](Cc3ccccc3)NC(=O)COc3c(C)cc(C)cc3C)cc2s1 [Compound 105] | 46.8 | – | 479 | 56.2 | –
27 | CC(C)CN(C[C@@H](O)[C@H](Cc1ccccc1)NC(=O)O[C@H]1CO[C@H]2OCC[C@H]21)S(=O)(=O)c1ccc2nc(N3CCNC3=O)sc2c1 [Compound 106] | 11 | – | 219 | 55 | –
28 | CC(C)CN(C[C@@H](O)[C@H](Cc1ccccc1)NC(=O)O[C@H]1CO[C@H]2OCC[C@H]21)S(=O)(=O)c1ccc2nc(N3CCN(C)CC3)sc2c1 [Compound 107] | 2 | – | 661 | 158 | –
29 | CC(C)CN(C[C@@H](O)[C@H](Cc1ccccc1)NC(=O)O[C@H]1CO[C@H]2OCC[C@H]21)S(=O)(=O)c1ccc2nc(N(C)CCCN3CCCC3)sc2c1 [Compound 108] | 24.5 | – | 813 | 288 | –
30 | Cc1cccc(C)c1OCC(=O)N[C@@H](Cc1ccccc1)[C@H](O)CN(CC(C)C)S(=O)(=O)c1ccc2nc(N(C)CCCN(C)C)sc2c1 [Compound 109] | 2090 | – | – | 4170 | –
31 | CC(C)CN(C[C@@H](O)[C@H](Cc1ccccc1)NC(=O)O[C@H]1CO[C@H]2OCC[C@H]21)S(=O)(=O)c1ccc2nc(N(C)CCN3CCCC3)sc2c1 [Compound 110] | 8.13 | – | 1550 | 676 | –
32 | Cc1cccc(C)c1OCC(=O)N[C@@H](Cc1ccccc1)[C@H](O)CN(CC(C)C)S(=O)(=O)c1ccc2nc(NC(=O)c3cccnc3)sc2c1 [Compound 111] | 24.5 | – | 661 | 234 | –
33 | Cc1cccc(C)c1OCC(=O)N[C@@H](Cc1ccccc1)[C@H](O)CN(CC(C)C)S(=O)(=O)c1ccc2nc(NC(=O)c3cc(O)cc(O)c3)sc2c1 [Compound 113] | 5.13 | – | 43.7 | 24.5 | –
34 | Cc1cccc(C)c1OCC(=O)N[C@@H](Cc1ccccc1)[C@H](O)CN(CC(C)C)S(=O)(=O)c1ccc2nc(NC(=O)C3CC(=O)N(Cc4ccco4)C3)sc2c1 (stereo partly drawn) [Compound 114] | 20.4 | – | 141 | 33.9 | –
35 | Cc1cccc(C)c1OCC(=O)N[C@@H](Cc1ccccc1)[C@H](O)CN(CC(C)C)S(=O)(=O)c1ccc2nc(N(C)CCN3CCCC3)sc2c1 [Compound 115] | 759 | – | 10000 | 6170 | –
36 | COc1cc(C(=O)Nc2nc3ccc(S(=O)(=O)N(CC(C)C)C[C@@H](O)[C@H](Cc4ccccc4)NC(=O)COc4c(C)cccc4C)cc3s2)cc(OC)c1O [Compound 116] | 31.6 | – | 43.7 | 32.4 | –
